# Source: PubChem BioAssay (NCI)
#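 Tested at 5 concentrations; 48 h exposure; 96-well plates; endpoints linearly interpolated, else capped at highest concentration. GI50 marks 50% less growth. TGI: concentration producing complete growth inhibition.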
# Key:
# Experiment in all cases: NCI anticancer screen, dose series, 48 h
# T-47D breast = test system: T-47D breast
# SW-620 colon = test system: SW-620 colon
# TK-10 renal = test system: TK-10 renal
# RPMI-8226 leukemia = test system: RPMI-8226 leukemia
# CCRF-CEM leukemia = test system: CCRF-CEM leukemia
# MDA-MB-435 = test system: MDA-MB-435
# NCI-H226 lung = test system: NCI-H226 lung
# SR leukemia = test system: SR leukemia
# OVCAR-5 ovarian = test system: OVCAR-5 ovarian
# HL-60(TB) leukemia = test system: HL-60(TB) leukemia
# SK-MEL-28 melanoma = test system: SK-MEL-28 melanoma
# CAKI-1 renal = test system: CAKI-1 renal
# SNB-19 CNS = test system: SNB-19 CNS
# SN12C renal = test system: SN12C renal
# NCI-H522 lung = test system: NCI-H522 lung
# UACC-257 melanoma = test system: UACC-257 melanoma
# 786-0 renal = test system: 786-0 renal
# M14 melanoma = test system: M14 melanoma
# SF-295 CNS = test system: SF-295 CNS
# HCT-15 colon = test system: HCT-15 colon
# SF-539 CNS = test system: SF-539 CNS
# COLO 205 colon = test system: COLO 205 colon
# MCF7 breast = test system: MCF7 breast
# HCT-116 colon = test system: HCT-116 colon
# BT-549 breast = test system: BT-549 breast
# ACHN renal = test system: ACHN renal
# HT29 colon = test system: HT29 colon
# DU-145 prostate = test system: DU-145 prostate
# NCI-H23 lung = test system: NCI-H23 lung
# HOP-62 NSCLC = test system: HOP-62 NSCLC
# UO-31 renal = test system: UO-31 renal
# MALME-3M melanoma = test system: MALME-3M melanoma
# SK-MEL-5 melanoma = test system: SK-MEL-5 melanoma
# HOP-92 NSCLC = test system: HOP-92 NSCLC
# IGROV1 ovarian = test system: IGROV1 ovarian
# KM12 colon = test system: KM12 colon
# MDA-MB-231 breast = test system: MDA-MB-231 breast
# SK-OV-3 ovarian = test system: SK-OV-3 ovarian
# MOLT-4 leukemia = test system: MOLT-4 leukemia
# PC-3 prostate = test system: PC-3 prostate
# SK-MEL-2 melanoma = test system: SK-MEL-2 melanoma
# OVCAR-8 ovarian = test system: OVCAR-8 ovarian
# HCC-2998 colon = test system: HCC-2998 colon
# OVCAR-3 ovarian = test system: OVCAR-3 ovarian
# OVCAR-4 ovarian = test system: OVCAR-4 ovarian
# UACC-62 melanoma = test system: UACC-62 melanoma
# A498 renal = test system: A498 renal
# SNB-75 CNS = test system: SNB-75 CNS
# LOX IMVI melanoma = test system: LOX IMVI melanoma
# NCI-H460 lung = test system: NCI-H460 lung
# A549 NSCLC = test system: A549 NSCLC
# HS 578T breast = test system: HS 578T breast
# K-562 leukemia = test system: K-562 leukemia
# NCI/ADR-RES ovarian = test system: NCI/ADR-RES ovarian
# RXF 393 renal = test system: RXF 393 renal
# SF-268 CNS = test system: SF-268 CNS
# U251 CNS = test system: U251 CNS
smiles,measurement,setting,value
C=C[C@]1(C)C=C2C(=O)[C@@]3(O)OC(=O)[C@@]4(CCCC(C)(C)[C@H]34)[C@@]2(O)CC1,GI50,T-47D breast,1090 nM
same,TGI,T-47D breast,3.49 µM
same,GI50,SW-620 colon,955 nM
same,TGI,SW-620 colon,3.36 µM
same,GI50,TK-10 renal,1490 nM
same,TGI,TK-10 renal,2920 nM
same,GI50,RPMI-8226 leukemia,1130 nM
same,TGI,RPMI-8226 leukemia,8.17 µM
same,GI50,CCRF-CEM leukemia,383 nM
same,TGI,CCRF-CEM leukemia,10.7 µM
same,GI50,MDA-MB-435,1760 nM
same,TGI,MDA-MB-435,4.42 µM
same,GI50,NCI-H226 lung,5.14 µM
same,TGI,NCI-H226 lung,26.1 µM
same,GI50,SR leukemia,1030 nM
same,TGI,SR leukemia,8.5 µM
same,GI50,OVCAR-5 ovarian,1970 nM
same,TGI,OVCAR-5 ovarian,3.85 µM
same,GI50,HL-60(TB) leukemia,1220 nM
same,TGI,HL-60(TB) leukemia,4.43 µM
same,GI50,SK-MEL-28 melanoma,1670 nM
same,TGI,SK-MEL-28 melanoma,3.22 µM
same,GI50,CAKI-1 renal,1330 nM
same,TGI,CAKI-1 renal,3.02 µM
same,GI50,SNB-19 CNS,6.33 µM
same,TGI,SNB-19 CNS,19.7 µM
same,GI50,SN12C renal,1960 nM
same,TGI,SN12C renal,4.82 µM
same,GI50,NCI-H522 lung,570 nM
same,TGI,NCI-H522 lung,2030 nM
same,GI50,UACC-257 melanoma,1330 nM
same,TGI,UACC-257 melanoma,2910 nM
same,GI50,786-0 renal,1680 nM
same,TGI,786-0 renal,3.13 µM
same,GI50,M14 melanoma,1790 nM
same,TGI,M14 melanoma,3.82 µM
same,GI50,SF-295 CNS,4.43 µM
same,TGI,SF-295 CNS,17.8 µM
same,GI50,HCT-15 colon,790 nM
same,TGI,HCT-15 colon,3.05 µM
same,GI50,SF-539 CNS,1370 nM
same,TGI,SF-539 CNS,2760 nM
same,GI50,COLO 205 colon,1610 nM
same,TGI,COLO 205 colon,2980 nM
same,GI50,MCF7 breast,1420 nM
same,TGI,MCF7 breast,6.96 µM
same,GI50,HCT-116 colon,1300 nM
same,TGI,HCT-116 colon,2860 nM
same,GI50,BT-549 breast,1070 nM
same,TGI,BT-549 breast,2480 nM
same,GI50,ACHN renal,1120 nM
same,TGI,ACHN renal,2350 nM
same,GI50,HT29 colon,2120 nM
same,TGI,HT29 colon,6.86 µM
same,GI50,DU-145 prostate,1670 nM
same,TGI,DU-145 prostate,3.69 µM
same,GI50,NCI-H23 lung,2140 nM
same,TGI,NCI-H23 lung,5.29 µM
same,GI50,HOP-62 NSCLC,4.17 µM
same,TGI,HOP-62 NSCLC,15.7 µM
same,GI50,UO-31 renal,1310 nM
same,TGI,UO-31 renal,2660 nM
same,GI50,MALME-3M melanoma,926 nM
same,TGI,MALME-3M melanoma,2800 nM
same,GI50,SK-MEL-5 melanoma,1580 nM
same,TGI,SK-MEL-5 melanoma,2970 nM
same,GI50,HOP-92 NSCLC,282 nM
same,TGI,HOP-92 NSCLC,1620 nM
same,GI50,IGROV1 ovarian,2160 nM
same,TGI,IGROV1 ovarian,4.58 µM
same,GI50,KM12 colon,3.42 µM
same,TGI,KM12 colon,13.8 µM
same,GI50,MDA-MB-231 breast,1460 nM
same,TGI,MDA-MB-231 breast,3.43 µM
same,GI50,SK-OV-3 ovarian,4.65 µM
same,TGI,SK-OV-3 ovarian,17 µM
same,GI50,MOLT-4 leukemia,1740 nM
same,TGI,MOLT-4 leukemia,7.53 µM
same,GI50,PC-3 prostate,1450 nM
same,TGI,PC-3 prostate,5.08 µM
same,GI50,SK-MEL-2 melanoma,2270 nM
same,TGI,SK-MEL-2 melanoma,5.02 µM
same,GI50,OVCAR-8 ovarian,1690 nM
same,TGI,OVCAR-8 ovarian,5.63 µM
same,GI50,HCC-2998 colon,2140 nM
same,TGI,HCC-2998 colon,3.81 µM
same,GI50,OVCAR-3 ovarian,1080 nM
same,TGI,OVCAR-3 ovarian,2520 nM
same,GI50,OVCAR-4 ovarian,1050 nM
same,TGI,OVCAR-4 ovarian,2870 nM
same,GI50,UACC-62 melanoma,1370 nM
same,TGI,UACC-62 melanoma,2920 nM
same,GI50,A498 renal,1510 nM
same,TGI,A498 renal,3.6 µM
same,GI50,SNB-75 CNS,1090 nM
same,TGI,SNB-75 CNS,2450 nM
same,GI50,LOX IMVI melanoma,1720 nM
same,TGI,LOX IMVI melanoma,3.24 µM
same,GI50,NCI-H460 lung,3.39 µM
same,TGI,NCI-H460 lung,13.9 µM
same,GI50,A549 NSCLC,2380 nM
same,TGI,A549 NSCLC,7.26 µM
same,GI50,HS 578T breast,2770 nM
same,TGI,HS 578T breast,> 100 µM
same,GI50,K-562 leukemia,2130 nM
same,TGI,K-562 leukemia,10.1 µM
same,GI50,NCI/ADR-RES ovarian,2890 nM
same,TGI,NCI/ADR-RES ovarian,> 100 µM
same,GI50,RXF 393 renal,608 nM
same,TGI,RXF 393 renal,1910 nM
same,GI50,SF-268 CNS,1890 nM
same,TGI,SF-268 CNS,4.69 µM
same,GI50,U251 CNS,2210 nM
same,TGI,U251 CNS,5.68 µM
